US5118681A (priority 1989, dated 1992)
Converted amounts (≈) assume the structure as drawn.

Legend:
[1] = system: Puccinia recondita (f. sp. tritici Races PKB and PLD); experiment: whole plant or invertebrate; format: in vivo; details: Puccinia recondita, 240 h; read-out: % control WLR
[2] = system: A.p; experiment: Minimum Inhibitory Concentration Test, alternate (Table 4), A.p; format: cell-based; details: Aureobasidium pullulans, TSB, 72 hours
Method: (§1) A 125 μl aliquot of 10,000 ppm test compound in acetone was added to 4.88 ml of TSB to provide a 250 ppm solution. From this solution, 100 μL was transferred to the first row of two microtiter plate columns. Both replicates and five additional compounds were all serially diluted 1:1 to a final concentration of 0.8 ppm in TSB.
(§2) Inoculation was accomplished by diluting a 24 hr Ps fl culture, four mls per 36 mls of phosphate buffer solution. A Dynatech autoinoculator was used to transfer 1.5 μl of this cell suspension to the microtiter plates. The plates were incubated at 30° C. for 3 days before the lowest concentration at which no growth occurs was recorded in the database. The SOK data and MIC test data on Ps.fl, Ps.ae, E.c, and S.a. bacteria and Candida albicans (C.alb), A.n and A.p fungi are listed in Table 4.

[3] = system: Pseudoperonospora cubensis; experiment: whole plant or invertebrate; format: in vivo; details: Pseudoperonospora cubensis, in Cucumis sativus, 168 h; read-out: % control CDM
[4] = system: Pellicularia filamentosa (f. sp. sasiki); experiment: whole plant or invertebrate; format: in vivo; details: 120 h; read-out: % control RSB
[5] = system: Phytophthora infestans; experiment: whole plant or invertebrate; format: in vivo; details: Phytophthora infestans, in Solanum lycopersicum, 96 h, read-out: % control TLB
[6] = system: Ps.ae; experiment: Minimum Inhibitory Concentration Test, alternate (Table 4), Ps.ae; format: cell-based, Pseudomonas aerugenosa; details: Pseudomonas, TSB, 72 hours
[7] = system: Piricularia oryzae; experiment: whole plant or invertebrate; format: in vivo; details: Pyricularia oryzae, read-out: % control RB
[8] = system: Candida albicans (C.alb); experiment: Minimum Inhibitory Concentration Test, alternate (Table 4), C.alb; format: cell-based; details: Candida albicans, TSB, 72 hours
Method: as §1, §2

[9] = system: Erysiphe graminis (f. sp. tritici); experiment: whole plant or invertebrate; format: in vivo; details: Blumeria graminis; read-out: % control WPM
[10] = system: Pseudomonas fluorescens; experiment: Minimum Inhibitory Concentration Test, alternate (Table 4), Ps.fl; format: cell-based; details: Pseudomonas fluorescens, TSB, 72 hours, 30° C
Method: as §1, §2

[11] = system: E.c; experiment: Minimum Inhibitory Concentration Test, alternate (Table 4), E.c; format: cell-based, Escherichia coli; details: Escherichia coli, TSB, 72 hours
Method: as §1, §2

[12] = system: S.a; experiment: Minimum Inhibitory Concentration Test, alternate (Table 4), S.a; format: cell-based, Staphylococcus aureus; details: Staphylococcus aureus, TSB, 72 hours
Method: as §1, §2

[13] = system: A.n; experiment: Minimum Inhibitory Concentration Test, alternate (Table 4), A.n; format: cell-based, Aspergillus niger; details: Aspergillus niger, TSB, 72 hours
Method: as §1, §2

Row | SMILES | pest or weed control at 200 ppm [1] [%] | MIC [2] [µg/mL] | pest or weed control at 200 ppm [3] [%] | pest or weed control at 200 ppm [4] [%] | pest or weed control at 200 ppm [5] [%] | MIC [6] [µg/mL] | pest or weed control at 200 ppm [7] [%] | MIC [8] [µg/mL] | pest or weed control at 200 ppm [9] [%] | MIC [10] [µg/mL] | MIC [11] [µg/mL] | MIC [12] [µg/mL] | MIC [13] [µg/mL] | pest or weed control at 100 ppm [1] [%] | pest or weed control at 100 ppm [3] [%] | pest or weed control at 100 ppm [4] [%] | pest or weed control at 100 ppm [5] [%] | pest or weed control at 100 ppm [7] [%] | pest or weed control at 100 ppm [9] [%]
1 | CCCCCCCCNC(=O)/C=C\SC(C(C)=O)C(=O)C1CC1 (stereo not drawn) [Example 29, N-n-octyl-cis-3-[2-(1-cyclopropyl-1,3-butanedionyl)thio]acrylamide] | 0 | 125 (≈ 368 µM) | 95 | 0 | 85 | > 500 | 77 | 31 (≈ 91.3 µM) | 0 | > 500 | > 500 | > 500 | 8 to 31 (≈ 23.6 to 91.3 µM) |  |  |  |  |  | 
2 | CCCCCCCCNC(=O)/C=C\SC(C(C)=O)C(=O)OCC (stereo not drawn) [Example 11, N-n-octyl-cis-3-[2-(ethoxy-3-oxobutanoyl)thio]acrylamide] | 50 | < 4 | 85 | 0 | 0 | > 500 | 0 | < 4 | 50 | 250 to 500 (≈ 728 to 1460 µM) | > 500 | > 500 | 4 to 8 (≈ 11.6 to 23.3 µM) |  |  |  |  |  | 
3 | CCCCCCCCNC(=O)/C=C\SC(C(=O)NN1CCOCC1)C(=O)OCC (stereo not drawn) [Example 63, N-n-octyl-cis-3-{2-[ethyl-N-(4-morpholino)malonamido]thio}acrylamide] |  | < 2 |  |  |  | > 250 |  | < 2 |  | > 250 | 250 (≈ 582 µM) | 31 (≈ 72.2 µM) | 2 to 16 (≈ 4.66 to 37.2 µM) | 0 | 99 | 0 | 0 | 0 | 0
4 | C=CCNC(=O)C(S/C=C\C(=O)NCCCCCCCC)C(=O)OCC (stereo not drawn) [Example 37, N-n-octyl-cis-3-{2-[ethyl-N-(2-propenyl)malonamido]thio}acrylamide] |  | < 2 |  |  |  | > 250 |  | 8 (≈ 20.8 µM) |  | 500 (≈ 1300 µM) | > 250 | 31 (≈ 80.6 µM) | 4 to 8 (≈ 10.4 to 20.8 µM) | 75 | 100 | 0 | 95 | 95 | 50
5 | CCCCCCCCNC(=O)/C=C\SC(C(C)=O)C(=O)Nc1ccccc1OC (stereo not drawn) [Example 30, N-n-octyl-cis-3-{2-[N-(2-methoxyphenyl)acetoacetamido]thio}acrylamide] | 0 | 250 (≈ 594 µM) | 100 | 0 | 80 | 500 (≈ 1190 µM) | 90 | 8 (≈ 19 µM) | 0 | > 500 | > 500 | > 500 | 31 to 63 (≈ 73.7 to 150 µM) |  |  |  |  |  | 
6 | CCCCCCCCNC(=O)/C=C\SC(C(=O)Nc1ccc(OC)c(Cl)c1)C(=O)OCC (stereo not drawn) [Example 50, N-n-octyl-cis-3-{2-[ethyl-N-(3-chloro-4-methoxyphenyl)malonamido]thio}acrylamide] |  | < 2 |  |  |  | > 250 |  | 63 to 250 (≈ 130 to 515 µM) |  | > 250 | > 250 | > 250 |  | 50 | 85 | 0 | 0 | 0 | 0
7 | CCCCCCCCNC(=O)/C=C\SC(C(=O)NC1CC1)C(=O)OCC (stereo not drawn) [Example 36, N-n-octyl-cis-3-[2-(ethyl-N-cyclopropylmalonamido)thio]acrylamide] |  | < 2 |  |  |  | > 250 |  | 31 (≈ 80.6 µM) |  | 500 (≈ 1300 µM) | > 250 | 125 (≈ 325 µM) | 8 to 16 (≈ 20.8 to 41.6 µM) | 50 | 100 | 0 | 47 | 90 | 0
